Data: patent publication US20110039763A1, “TARGETED ANTIMICROBIAL MOIETIES” (C3 JIAN, INC., priority 2009, published 2011)
Entries after “also recorded” stand apart in the source; their conditions may differ.

Tested on: microorganisms
Test: Targeting peptide binding to target microorganisms (Tables 3, 10, 12)
Details: microorganism(s) the targeting peptide binds; binding in aqueous buffers varied with peptide solubility, preferably 1x PBS

Substance | Target(s)
PF-231 (AVRDFKKSVREEDEAASLNSPRTIDAQVKTSESTSVKS; Peptide with targeting and/or antimicrobial activity) | S. mutans
PF-232 (FDQLYALEREGKLDELLA; Peptide with targeting and/or antimicrobial activity) | S. epidermidis; also recorded: M. luteus
PF-236 (KEIRTATVAELNAKRRLTSAEQALAEVS; Peptide with targeting and/or antimicrobial activity) | S. mutans; also recorded: S. epidermidis; also recorded: E. coli; also recorded: C. albicans; also recorded: S. pneumoniae; also recorded: E. faecalis
PF-237 (YVKPKVGVHE; Peptide with targeting and/or antimicrobial activity) | S. epidermidis
PF-238 (RNAVVVTEATFPKYEEEITNYLNRRFGEDWSLKLEKCSVA; Peptide with targeting and/or antimicrobial activity) | S. mutans and S. epidermidis and E. coli and P. aeruginosa and C. albicans and MRSA and S. pneumoniae and E. faecalis
PF-239 (PKHNVVTGVSVDLDYKP; Peptide with targeting and/or antimicrobial activity) | S. mutans; also recorded: E. coli
PF-240 (RITEVPPDEHSDR; Peptide with targeting and/or antimicrobial activity) | S. mutans; also recorded: E. coli
PF-242 (KLFEDPLIKSKAVENFQTTWHEQCLAKELAKNM; Peptide with targeting and/or antimicrobial activity) | S. mutans; also recorded: E. coli
PF-244 (HMRTISYLLAFAKFSLFIPPKQSLKRL; Peptide with targeting and/or antimicrobial activity) | S. epidermidis; also recorded: M. luteus; also recorded: P. aeruginosa; also recorded: A. baumannii
PF-245 (MNDVKPVVQPKQTLKAFLVQLLSVRAGVYIKQNNQLPKTKG; Peptide with targeting and/or antimicrobial activity) | S. epidermidis; also recorded: M. luteus; also recorded: P. aeruginosa; also recorded: A. baumannii
PF-246 (QPDEKAEFFDPSLDKVYRHPTFYHIPDGIEHM; Peptide with targeting and/or antimicrobial activity) | S. mutans
PF-247 (ETAASETH; Peptide with targeting and/or antimicrobial activity) | S. epidermidis
PF-248 (ILSKLWFWMINSLGVVLLVSYWLLAKWGVA; Peptide with targeting and/or antimicrobial activity) | S. mutans; also recorded: S. epidermidis; also recorded: M. luteus; also recorded: E. coli; also recorded: P. aeruginosa; also recorded: A. baumannii
PF-253 (VRDDDS; Peptide with targeting and/or antimicrobial activity) | S. epidermidis; also recorded: M. luteus
PF-254 (FIYGVGFVPHFWLWKWLFSPWIAWPLMLLGYYIWFLT; Peptide with targeting and/or antimicrobial activity) | S. epidermidis; also recorded: M. luteus; also recorded: P. aeruginosa; also recorded: A. baumannii
PF-256 (EYFKQVYVKNEKIYSFWICKDLSPKEAAKRAEDILVKLK; Peptide with targeting and/or antimicrobial activity) | S. epidermidis
PF-259 (LPFSKIGRRVSYKKKDVLKYEQSKTVLNTAQLATV; Peptide with targeting and/or antimicrobial activity) | S. epidermidis; also recorded: P. aeruginosa; also recorded: A. baumannii
PF-262 (DPHSEIDVTRYCQLHHFTCQTMQISEREFHYLIETQ; Peptide with targeting and/or antimicrobial activity) | S. mutans; also recorded: S. epidermidis; also recorded: M. luteus; also recorded: E. coli; also recorded: P. aeruginosa; also recorded: A. baumannii
PF-263 (NLKKCPC; Peptide with targeting and/or antimicrobial activity) | S. epidermidis; also recorded: M. luteus; also recorded: A. baumannii
PF-265 (MKTLFFPLFLIIFVLIIQALDQSYQKKIGISKPQKHPEFMQ; Peptide with targeting and/or antimicrobial activity) | S. epidermidis; also recorded: M. luteus; also recorded: A. baumannii
PF-266 (DQEKKNKTEESTEQ; Peptide with targeting and/or antimicrobial activity) | S. mutans
PF-267 (SDDKRTD; Peptide with targeting and/or antimicrobial activity) | M. luteus
PF-268 (EVLLSDLRPDIFSET; Peptide with targeting and/or antimicrobial activity) | S. mutans
PF-275 (LVSGVANTVKNTAHTVGNTAKHAGHVAADTTVKATKKQQVK; Peptide with targeting and/or antimicrobial activity) | S. mutans
PF-279 (SHIGFISISACLAVLLGIARLFVWTWVKFFA; Peptide with targeting and/or antimicrobial activity) | S. mutans; also recorded: S. epidermidis; also recorded: M. luteus; also recorded: E. coli; also recorded: P. aeruginosa; also recorded: A. baumannii
PF-281 (SYNTYYNKLIHGQRTPDGM; Peptide with targeting and/or antimicrobial activity) | S. mutans; also recorded: E. coli
PF-282 (QNNDTSAWCGSAHKNGNS; Peptide with targeting and/or antimicrobial activity) | S. mutans

Substance | Target(s)
PF-284 (MRYITYSLIPRLLSKKVIHQQ; Peptide with targeting and/or antimicrobial activity) | C. difficile
PF-285 (VPAKLLRVIDEIPE; Peptide with targeting and/or antimicrobial activity) | S. mutans
PF-288 (IYQLLNIEYSEDD; Peptide with targeting and/or antimicrobial activity) | S. mutans; also recorded: E. coli
PF-291 (DVDGAIESEL; Peptide with targeting and/or antimicrobial activity) | S. mutans; also recorded: E. coli
PF-295 (NIQVYESECGNYIFKKSDESFLIDIFDKNGTH; Peptide with targeting and/or antimicrobial activity) | C. difficile
PF-299 (LATKLKYEKEHKKM; Peptide with targeting and/or antimicrobial activity) | B. subtilis
PF-300 (VKDVLLELFNKIIGA; Peptide with targeting and/or antimicrobial activity) | B. subtilis; also recorded: C. difficile
PF-304 (LVKDTSDIKNDLNNIEIVTSKNSNDIAKLKSVK; Peptide with targeting and/or antimicrobial activity) | S. mutans
PF-308 (QQYLILDRM; Peptide with targeting and/or antimicrobial activity) | C. difficile
PF-309 (GIPGMTAAPAEENEQEENADEE; Peptide with targeting and/or antimicrobial activity) | S. mutans; also recorded: E. coli
PF-311 (IDAVTKKKTTCMIRAPTKIPIAHTDN; Peptide with targeting and/or antimicrobial activity) | C. difficile
PF-314 (ECLKKAIKSKALNKAFKIDVPDEVYDNLLMELEEYEK; Peptide with targeting and/or antimicrobial activity) | S. mutans
PF-317 (LILVSDI; Peptide with targeting and/or antimicrobial activity) | S. mutans
PF-320 (DSGYYALLENKEERVVWDGEVVANNIFNNLWIVVNKVKTG; Peptide with targeting and/or antimicrobial activity) | S. mutans; also recorded: E. coli
PF-323 (ARESIEKSHVPVDATIVGVVDSFEVFDE; Peptide with targeting and/or antimicrobial activity) | S. mutans
PF-324 (HFSLL; Peptide with targeting and/or antimicrobial activity) | C. difficile
PF-325 (LTIDEKLRNHR; Peptide with targeting and/or antimicrobial activity) | S. mutans; also recorded: E. coli
PF-326 (VIVGNLGAQKEKRNDTPISAKKDIMGDKTVRVRADLHH; Peptide with targeting and/or antimicrobial activity) | S. mutans; also recorded: E. coli
PF-328 (NGNEKAFSEVENLVK; Peptide with targeting and/or antimicrobial activity) | S. mutans
PF-329 (IGILFDKSVRKY; Peptide with targeting and/or antimicrobial activity) | S. epidermidis
PF-333 (YMTKKLVEMAEQQMAGKSNR; Peptide with targeting and/or antimicrobial activity) | S. mutans
PF-334 (QQYLILDRM; Peptide with targeting and/or antimicrobial activity) | S. epidermidis; also recorded: C. difficile
PF-337 (YMTKKLVEMAERQMAGK; Peptide with targeting and/or antimicrobial activity) | S. epidermidis
PF-338 (KGTSCPDQLSKAIRQSI; Peptide with targeting and/or antimicrobial activity) | S. mutans
PF-340 (VKDVLLELFNKIIGA; Peptide with targeting and/or antimicrobial activity) | S. mutans; also recorded: E. coli
PF-348 (ESASAAEWYNPNMNVKKAICMG; Peptide with targeting and/or antimicrobial activity) | B. subtilis; also recorded: E. coli; also recorded: P. aeruginosa; also recorded: C. albicans; also recorded: E. faecalis; also recorded: C. jejuni
PF-351 (YLFFKGKKVAEEEATKDEVKR; Peptide with targeting and/or antimicrobial activity) | S. mutans
